Measurements reported in patent publication US20200181089A1, “4-ANILINO-QUINOLINE COMPOUNDS AS ANTI-CANCER AGENTS” (INSERM (INSTITUT NATIONAL DE LA SANTÉ ET DE LA RECHERCHE …, priority 2016, published 2020).
Like-named read-outs stand apart in the source and are kept apart here.

Tests used:
Assay type in all cases: cell-based
[1] = test system: EZH2 transcription; test: Ability to decrease EZH2 mRNA level in A375 (dose-response, quantitative PCR); settings: Homo sapiens, A-375, 96 h; A375 cells, incubated 4 days; read-out: IC50 (concentration necessary to obtain 50% of EZH2 transcription activity)
Method: Typically, 30000-50000 cells were plated in six-well culture plates and incubated 24 h later with increasing concentration of NIK inhibitors or vehicle. Cells were incubated with the inhibitors for 4 days prior to harvesting for RNA extraction and PCR. Total RNA was isolated from cells using the RNAeasy minikit (Qiagen) according to the manufacturer's procedure. Reverse transcription was performed using the AMV reverse transcription system (Promega), and quantitative PCR was performed with Power Sybr green (Applied Biosystems, Life Technologies, Grand Island, N.Y.) following the manufacturer's instructions. The PCR was carried out on a Step One plus Real-Time PCR system (Applied Biosystems). All analyses were done in triplicate, and a melting curve analysis was performed to control for product quality and specificity. Expression levels were calculated using the comparative method of relative quantification, with SB34 as a normalizer. The data were analyzed for statistical significance using Student's t-test. The results are presented as the mean±SEM relative to the control. Primers were obtained from primer bank or primer depot (http://pga.mgh.harvard.edu/primerbank/, https://primerdepot.nci.nih.gov), and their specificity was verified using primer blast (http://www.ncbi.nlm.nih.gov/tools/primer-blast/).
Here IC50 represents the concentration necessary to obtain 50% of EZH2 transcription activity.

[2] = test system: A375 cells; test: A375 cell proliferation assay (trypan blue exclusion); settings: Homo sapiens, A-375, treated/untreated cell number; for activity at 1 µM: A375, 1 μM; for activity at 10 µM: A375, 10 μM
Method: Cells were counted using a Malassez chamber. The average and standard deviation were calculated from triplicate experiments. Antiproliferative effects were evaluated by trypan blue exclusion assay. Briefly, cells were seeded into 12-well plate and grown in media supplemented with indicated compound at 1 or 10 μM for 48 h or 96 h. Cells were washed with PBS and detached by trypsinization, collected and colored by trypan blue. Dead and living cells were counted and proliferation was calculated as follow: Proliferation (%)=[(treated cell number/untreated cells number)*100].

[3] = test system: normal human fibroblast; test: Fibroblast viability assay (trypan blue exclusion); settings: 96 h
Method: (§1) Cell viability effects were evaluated by trypan blue exclusion assay. Briefly, cells were seeded into 12-well plate and grown in media supplemented with indicated compound at 10 μM for 96 h. Cells were washed with PBS and detached by trypsinization, collected and colored by trypan blue. Dead and living cells were counted and cell viability was calculated as follow: Viability (%)=100−[(dead cell number/total cells)*100].

[4] = test system: normal human melanocyte; test: Melanocyte viability assay (trypan blue exclusion); settings: 96 h
Method: as §1

[5] = 48 h, read-out: Proliferation (%) At 1 μM - 48 H
[6] = 96 h, read-out: Proliferation (%) At 1 μM - 96 H
[7] = 48 h, read-out: Proliferation (%) At 10 μM - 48 H
[8] = 96 h, read-out: Proliferation (%) At 10 μM - 96 H

Row | SMILES | IC50 [1] | activity at 1 µM [2, 5] | activity at 1 µM [2, 6] | activity at 10 µM [2, 7] | activity at 10 µM [2, 8] | Viability (%) at 10 μM Fibroblast [3] | Viability (%) at 10 μM Melanocyte [4]
1 | Cc1ccc(Nc2ccnc3cc(Cl)ccc23)cc1 [Compound 2, 4-((4-methylphenyl)amino)-7-chloroquinolinium chloride] | 10 µM | – | – | – | – | – | –
2 | COc1cccc(Nc2ccnc3cc(Cl)ccc23)c1 [Compound 6, 4-((3-methoxyphenyl)amino)-7-chloroquinolinium chloride] | 15 µM | – | – | – | – | – | –
3 | Oc1ccc(Nc2ccnc3cc(Cl)ccc23)cc1 [Compound 7, 4-((4-hydroxyphenyl)amino)-7-chloroquinolinium chloride] | – | 84.6% | 91.1% | 95.2% | 79.4% | 97.7% | 99.1%
4 | Oc1ccc(Nc2ccnc3cc(Cl)ccc23)cc1Cl [Compound 8, 4-((4-hydroxy-3-chlorophenyl)amino)-7-chloroquinolinium chloride] | 15 µM | 81.3% | 74% | 82.1% | 67.5% | 98.6% | 98.0%
5 | COc1ccc(Nc2ccnc3cc(N4CCOCC4)ccc23)cc1 [Compound 13, N-(4-methoxyphenyl)-7-morpholinoquinolin-4-amine] | 15 µM | – | – | – | – | – | –
6 | Oc1ccc(Nc2ccc3c(Nc4cc(F)cc(F)c4)ccnc3c2)cc1Cl [Compound 19, 2-chloro-4-((4-((3,5-difluorophenyl)amino)quinolin-7-yl)amino)phenol] | – | 74.7% | 74.9% | 0.4% | 0% | – | –
7 | COc1cccc(Nc2ccc3c(Nc4cc(F)cc(F)c4)ccnc3c2)c1 [Compound 26, N^4-(3,5-difluorophenyl)-N^7-(3-methoxyphenyl)quinolin-4,7-diamine] | – | 54.9% | 9.9% | 0.4% | 0% | – | –
8 | COc1ccc(Nc2cc(OC)nc3cc(Cl)ccc23)cc1 [Compound 27, 7-chloro-2-methoxy-N-(4-methoxyphenyl)quinolin-4-amine] | – | 98.7% | 85.6% | 67.8% | 21.8% | 93.9% | 76.9%
9 | COc1ccc(Nc2cc(N3CCOCC3)nc3cc(Cl)ccc23)cc1OC [Compound 28, 7-chloro-N-(3,4-dimethoxyphenyl)-2-morpholinoquinolin-4-amine] | – | 98.4% | 87.8% | 92% | 82.8% | 95.7% | 99.1%
10 | COc1ccc(Nc2cc(N3CCN(C)CC3)nc3cc(Cl)ccc23)cc1OC [Compound 29, 7-chloro-N-(3,4-dimethoxyphenyl)-2-(4-methylpiperazin-1-yl)quinolin-4-amine] | – | 89.6% | 87.6% | 67.2% | 4.8% | 41.6% | 91.2%
11 | COc1ccc(Nc2cc(N3CCOCC3)nc3cc(Cl)ccc23)cc1 [Compound 30, 7-chloro-N-(4-methoxyphenyl)-2-morpholinoquinolin-4-amine] | – | 88% | 73.2% | 87.2% | 37% | 96.4% | 94.2%
12 | COc1ccc(Nc2cc(N3CCN(C)CC3)nc3cc(Cl)ccc23)cc1 [Compound 31, 7-chloro-N-(4-methoxyphenyl)-2-(4-methylpiperazin-1-yl)quinolin-4-amine] | – | 106% | 83.3% | 37.6% | 3.39% | 29.6% | 33.1%
13 | COc1ccc(Nc2cc(OCCN3CCOCC3)nc3cc(Cl)ccc23)cc1OC [Compound 32, 7-chloro-N-(3,4-dimethoxyphenyl)-2-(2-morpholinoethoxy)quinolin-4-amine] | – | 96% | 84.5% | 100% | 82.2% | 99.4% | 98.6%
14 | COc1cc(Nc2ccc(OC)c(OC)c2)c2ccc(Cl)cc2n1 [Compound 33, 7-chloro-N-(3,4-dimethoxyphenyl)-2-methoxyquinolin-4-amine] | – | 106% | 97.2% | 102% | 95.2% | 97.7% | 60.1%
15 | FC(F)Oc1ccc(Nc2ccnc3cc(Cl)ccc23)cc1 [Compound 34, 7-chloro-N-(4-(difluoromethoxy)phenyl)quinolin-4-amine] | – | 96% | 98.6% | 77.6% | 37.9% | 98.3% | 98.7%
16 | COCCOc1cc(Nc2ccnc3cc(Cl)ccc23)ccc1OC [Compound 35, 7-chloro-N-(4-methoxy-3-(2-methoxyethoxy)phenyl)quinolin-4-amine] | – | 104% | 85.3% | 84.7% | 79.9% | 99.5% | 99.1%
17 | FC(F)(F)Oc1ccc(Nc2ccnc3ccc(Cl)cc23)cc1 [Compound 36, 6-chloro-N-(4-(trifluoromethoxy)phenyl)quinolin-4-amine] | – | 105% | 97.7% | 49.7% | 9.89% | 92.1% | 73.4%
18 | COc1ccc(Nc2ccnc3ccc(Cl)cc23)c(OC)c1 [Compound 37, 6-chloro-N-(2,4-dimethoxyphenyl)quinolin-4-amine] | – | 84% | 87.4% | 80.5% | 53% | 94.6% | 98.7%
19 | COc1ccc(Nc2ccnc3cc(Cl)ccc23)cc1OC [Compound 38, 7-chloro-N-(3,4-dimethoxyphenyl)quinolin-4-amine] | – | 90.8% | 46.9% | 33.5% | 15.7% | 93.3% | 99.2%
20 | COc1ccc(Nc2ccnc3cc(Cl)ccc23)c(OC)c1 [Compound 39, 7-chloro-N-(2,4-dimethoxyphenyl)quinolin-4-amine] | – | 88.3% | 34.3% | 18.1% | 13.6% | 100.0% | 99.5%
